{
  "source": "PubChem BioAssay AID1963837",
  "about": "(Molecular Pharmacology Branch, DTP, NCI, 2024)",
  "data": [
    {"test_system": "843126-344-R-J1-PDC complex spheroid viability", "experiment": "Anticancer human tumor 843126-344-R-J1-PDC patient-derived melanoma cell line growth inhibition [POLQ]", "details": "second compound 3.16 µM; first compound 0.0316 µM; stronger effect = lower value", "in_short": "(§1)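 Growth inhibition in 3D: complex spheroids (tumor PDC, HUVEC, MSC) treated with POLQ inhibitor combinations; where Cmax unknown, highest tested concentration 10 microM, except SN-38 at 1 microM.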", "units": {"viability, T/C": "%"}, "values": [
      {"smiles": "CCc1c2c(nc3ccc(O)cc13)-c1cc3c(c(=O)n1C2)COC(=O)[C@]3(O)CC", "note": "+ COC1C(OC(N)=O)C(O)C(Oc2ccc3c(O)c(NC(=O)c4ccc(O)c(CC=C(C)C)c4)c(=O)oc3c2C)OC1(C)C", "viability, T/C": 73.3},
      {"smiles": "O=c1[nH]cc(F)c(=O)[nH]1", "note": "+ Nc1ccc(C#CCN(C(=O)Cc2ncc(C(F)(F)F)cc2C(F)(F)F)c2ccc(F)cc2)nn1", "viability, T/C": 107},
      {"smiles": "COc1cc2cc(C(=O)CCC(=O)O)sc2cc1OC", "note": "+ COC1C(OC(N)=O)C(O)C(Oc2ccc3c(O)c(NC(=O)c4ccc(O)c(CC=C(C)C)c4)c(=O)oc3c2C)OC1(C)C", "viability, T/C": 97.3}
    ]},
    {"test_system": "843126-344-R-J1-PDC complex spheroid viability", "experiment": "Anticancer human tumor 843126-344-R-J1-PDC cell line growth inhibition [POLQ];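 note: spheroids exposed to drugs for seven days before readout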", "details": "second compound 3.16 µM; first compound 0.1 µM; stronger effect = lower value", "in_short": "as §1", "units": {"viability, T/C": "%"}, "values": [
      {"smiles": "COc1cc(C2c3cc4c(cc3C(OC3OC5COC(C)OC5C(O)C3O)C3COC(=O)C23)OCO4)cc(OC)c1O", "note": "(configuration not stated) + Nc1ccc(C#CCN(C(=O)Cc2ncc(C(F)(F)F)cc2C(F)(F)F)c2ccc(F)cc2)nn1", "viability, T/C": 77},
      {"smiles": "COc1cccc(OCCCN)c1-c1cc(Nc2cnc(C#N)cn2)n[nH]1", "note": "+ Nc1ccc(C#CCN(C(=O)Cc2ncc(C(F)(F)F)cc2C(F)(F)F)c2ccc(F)cc2)nn1", "viability, T/C": 41.2},
      {"smiles": "O=c1[nH]cc(F)c(=O)[nH]1", "note": "+ Cc1cccc(N(C)C(=O)C2C(O)CCN2c2nc(C)cc(C(F)(F)F)c2C#N)c1", "viability, T/C": 94.5},
      {"smiles": "C=CCn1c(=O)c2cnc(Nc3ccc(N4CCN(C)CC4)cc3)nc2n1-c1cccc(C(C)(C)O)n1", "note": "+ COC1C(OC(N)=O)C(O)C(Oc2ccc3c(O)c(NC(=O)c4ccc(O)c(CC=C(C)C)c4)c(=O)oc3c2C)OC1(C)C", "viability, T/C": 72.7},
      {"smiles": "CCc1c2c(nc3ccc(O)cc13)-c1cc3c(c(=O)n1C2)COC(=O)[C@]3(O)CC", "note": "+ COC1C(OC(N)=O)C(O)C(Oc2ccc3c(O)c(NC(=O)c4ccc(O)c(CC=C(C)C)c4)c(=O)oc3c2C)OC1(C)C", "viability, T/C": 57.1},
      {"smiles": "O=c1[nH]cc(F)c(=O)[nH]1", "note": "+ Nc1ccc(C#CCN(C(=O)Cc2ncc(C(F)(F)F)cc2C(F)(F)F)c2ccc(F)cc2)nn1", "viability, T/C": 87.3},
      {"smiles": "COc1cc2cc(C(=O)CCC(=O)O)sc2cc1OC", "note": "+ COC1C(OC(N)=O)C(O)C(Oc2ccc3c(O)c(NC(=O)c4ccc(O)c(CC=C(C)C)c4)c(=O)oc3c2C)OC1(C)C", "viability, T/C": 93.5}
    ]},
    {"test_system": "843126-344-R-J1-PDC complex spheroid viability", "experiment": "Anticancer human tumor 843126-344-R-J1-PDC cell line growth inhibition [POLQ];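 note: spheroids exposed to drugs for seven days before readout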", "details": "second compound 3.16 µM; first compound 0.316 µM; stronger effect = lower value", "in_short": "as §1", "units": {"viability, T/C": "%"}, "values": [
      {"smiles": "COc1cc(C2c3cc4c(cc3C(OC3OC5COC(C)OC5C(O)C3O)C3COC(=O)C23)OCO4)cc(OC)c1O", "note": "(configuration not stated) + Nc1ccc(C#CCN(C(=O)Cc2ncc(C(F)(F)F)cc2C(F)(F)F)c2ccc(F)cc2)nn1", "viability, T/C": 89.9},
      {"smiles": "COc1cccc(OCCCN)c1-c1cc(Nc2cnc(C#N)cn2)n[nH]1", "note": "+ Nc1ccc(C#CCN(C(=O)Cc2ncc(C(F)(F)F)cc2C(F)(F)F)c2ccc(F)cc2)nn1", "viability, T/C": 38.6},
      {"smiles": "O=c1[nH]cc(F)c(=O)[nH]1", "note": "+ Cc1cccc(N(C)C(=O)C2C(O)CCN2c2nc(C)cc(C(F)(F)F)c2C#N)c1", "viability, T/C": 113},
      {"smiles": "C=CCn1c(=O)c2cnc(Nc3ccc(N4CCN(C)CC4)cc3)nc2n1-c1cccc(C(C)(C)O)n1", "note": "+ COC1C(OC(N)=O)C(O)C(Oc2ccc3c(O)c(NC(=O)c4ccc(O)c(CC=C(C)C)c4)c(=O)oc3c2C)OC1(C)C", "viability, T/C": 81.7},
      {"smiles": "CCc1c2c(nc3ccc(O)cc13)-c1cc3c(c(=O)n1C2)COC(=O)[C@]3(O)CC", "note": "+ COC1C(OC(N)=O)C(O)C(Oc2ccc3c(O)c(NC(=O)c4ccc(O)c(CC=C(C)C)c4)c(=O)oc3c2C)OC1(C)C", "viability, T/C": 50.9},
      {"smiles": "O=c1[nH]cc(F)c(=O)[nH]1", "note": "+ Nc1ccc(C#CCN(C(=O)Cc2ncc(C(F)(F)F)cc2C(F)(F)F)c2ccc(F)cc2)nn1", "viability, T/C": 82.8},
      {"smiles": "COc1cc2cc(C(=O)CCC(=O)O)sc2cc1OC", "note": "+ COC1C(OC(N)=O)C(O)C(Oc2ccc3c(O)c(NC(=O)c4ccc(O)c(CC=C(C)C)c4)c(=O)oc3c2C)OC1(C)C", "viability, T/C": 81.4}
    ]},
    {"test_system": "843126-344-R-J1-PDC complex spheroid viability", "experiment": "Anticancer human tumor 843126-344-R-J1-PDC cell line growth inhibition [POLQ];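 note: spheroids exposed to drugs for seven days before readout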", "details": "second compound 3.16 µM; first compound 1 µM; stronger effect = lower value", "in_short": "as §1", "units": {"viability, T/C": "%"}, "values": [
      {"smiles": "COc1cc(C2c3cc4c(cc3C(OC3OC5COC(C)OC5C(O)C3O)C3COC(=O)C23)OCO4)cc(OC)c1O", "note": "(configuration not stated) + Nc1ccc(C#CCN(C(=O)Cc2ncc(C(F)(F)F)cc2C(F)(F)F)c2ccc(F)cc2)nn1", "viability, T/C": 75.2},
      {"smiles": "COc1cccc(OCCCN)c1-c1cc(Nc2cnc(C#N)cn2)n[nH]1", "note": "+ Nc1ccc(C#CCN(C(=O)Cc2ncc(C(F)(F)F)cc2C(F)(F)F)c2ccc(F)cc2)nn1", "viability, T/C": 38.8},
      {"smiles": "O=c1[nH]cc(F)c(=O)[nH]1", "note": "+ Cc1cccc(N(C)C(=O)C2C(O)CCN2c2nc(C)cc(C(F)(F)F)c2C#N)c1", "viability, T/C": 95.8},
      {"smiles": "C=CCn1c(=O)c2cnc(Nc3ccc(N4CCN(C)CC4)cc3)nc2n1-c1cccc(C(C)(C)O)n1", "note": "+ COC1C(OC(N)=O)C(O)C(Oc2ccc3c(O)c(NC(=O)c4ccc(O)c(CC=C(C)C)c4)c(=O)oc3c2C)OC1(C)C", "viability, T/C": 84.2},
      {"smiles": "CCc1c2c(nc3ccc(O)cc13)-c1cc3c(c(=O)n1C2)COC(=O)[C@]3(O)CC", "note": "+ COC1C(OC(N)=O)C(O)C(Oc2ccc3c(O)c(NC(=O)c4ccc(O)c(CC=C(C)C)c4)c(=O)oc3c2C)OC1(C)C", "viability, T/C": 44.8},
      {"smiles": "O=c1[nH]cc(F)c(=O)[nH]1", "note": "+ Nc1ccc(C#CCN(C(=O)Cc2ncc(C(F)(F)F)cc2C(F)(F)F)c2ccc(F)cc2)nn1", "viability, T/C": 82.3},
      {"smiles": "COc1cc2cc(C(=O)CCC(=O)O)sc2cc1OC", "note": "+ COC1C(OC(N)=O)C(O)C(Oc2ccc3c(O)c(NC(=O)c4ccc(O)c(CC=C(C)C)c4)c(=O)oc3c2C)OC1(C)C", "viability, T/C": 108}
    ]},
    {"test_system": "843126-344-R-J1-PDC complex spheroid viability", "experiment": "Anticancer human tumor 843126-344-R-J1-PDC cell line growth inhibition [POLQ];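 note: spheroids exposed to drugs for seven days before readout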", "details": "second compound 3.16 µM; first compound 3.16 µM; stronger effect = lower value", "in_short": "as §1", "units": {"viability, T/C": "%"}, "values": [
      {"smiles": "COc1cc(C2c3cc4c(cc3C(OC3OC5COC(C)OC5C(O)C3O)C3COC(=O)C23)OCO4)cc(OC)c1O", "note": "(configuration not stated) + Nc1ccc(C#CCN(C(=O)Cc2ncc(C(F)(F)F)cc2C(F)(F)F)c2ccc(F)cc2)nn1", "viability, T/C": 68.6},
      {"smiles": "O=c1[nH]cc(F)c(=O)[nH]1", "note": "+ Cc1cccc(N(C)C(=O)C2C(O)CCN2c2nc(C)cc(C(F)(F)F)c2C#N)c1", "viability, T/C": 103},
      {"smiles": "O=c1[nH]cc(F)c(=O)[nH]1", "note": "+ Nc1ccc(C#CCN(C(=O)Cc2ncc(C(F)(F)F)cc2C(F)(F)F)c2ccc(F)cc2)nn1", "viability, T/C": 80},
      {"smiles": "COc1cc2cc(C(=O)CCC(=O)O)sc2cc1OC", "note": "+ COC1C(OC(N)=O)C(O)C(Oc2ccc3c(O)c(NC(=O)c4ccc(O)c(CC=C(C)C)c4)c(=O)oc3c2C)OC1(C)C", "viability, T/C": 97.7}
    ]},
    {"test_system": "843126-344-R-J1-PDC complex spheroid viability", "experiment": "Anticancer human tumor 843126-344-R-J1-PDC cell line growth inhibition [POLQ];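 note: spheroids exposed to drugs for seven days before readout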", "details": "second compound 3.16 µM; first compound 10 µM; stronger effect = lower value", "in_short": "as §1", "units": {"viability, T/C": "%"}, "values": [
      {"smiles": "COc1cc(C2c3cc4c(cc3C(OC3OC5COC(C)OC5C(O)C3O)C3COC(=O)C23)OCO4)cc(OC)c1O", "note": "(configuration not stated) + Nc1ccc(C#CCN(C(=O)Cc2ncc(C(F)(F)F)cc2C(F)(F)F)c2ccc(F)cc2)nn1", "viability, T/C": 44.3},
      {"smiles": "O=c1[nH]cc(F)c(=O)[nH]1", "note": "+ Cc1cccc(N(C)C(=O)C2C(O)CCN2c2nc(C)cc(C(F)(F)F)c2C#N)c1", "viability, T/C": 91.5},
      {"smiles": "O=c1[nH]cc(F)c(=O)[nH]1", "note": "+ Nc1ccc(C#CCN(C(=O)Cc2ncc(C(F)(F)F)cc2C(F)(F)F)c2ccc(F)cc2)nn1", "viability, T/C": 82.4},
      {"smiles": "COc1cc2cc(C(=O)CCC(=O)O)sc2cc1OC", "note": "+ COC1C(OC(N)=O)C(O)C(Oc2ccc3c(O)c(NC(=O)c4ccc(O)c(CC=C(C)C)c4)c(=O)oc3c2C)OC1(C)C", "viability, T/C": 109}
    ]},
    {"test_system": "843126-344-R-J1-PDC complex spheroid viability", "experiment": "Anticancer human tumor 843126-344-R-J1-PDC cell line growth inhibition [POLQ];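 note: spheroids exposed to drugs for seven days before readout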", "details": "second compound 10 µM; first compound 0.00316 µM; stronger effect = lower value", "in_short": "as §1", "units": {"viability, T/C": "%"}, "values": [
      {"smiles": "COc1cccc(OCCCN)c1-c1cc(Nc2cnc(C#N)cn2)n[nH]1", "note": "+ Nc1ccc(C#CCN(C(=O)Cc2ncc(C(F)(F)F)cc2C(F)(F)F)c2ccc(F)cc2)nn1", "viability, T/C": 84.8},
      {"smiles": "C=CCn1c(=O)c2cnc(Nc3ccc(N4CCN(C)CC4)cc3)nc2n1-c1cccc(C(C)(C)O)n1", "note": "+ COC1C(OC(N)=O)C(O)C(Oc2ccc3c(O)c(NC(=O)c4ccc(O)c(CC=C(C)C)c4)c(=O)oc3c2C)OC1(C)C", "viability, T/C": 89.8},
      {"smiles": "CCc1c2c(nc3ccc(O)cc13)-c1cc3c(c(=O)n1C2)COC(=O)[C@]3(O)CC", "note": "+ COC1C(OC(N)=O)C(O)C(Oc2ccc3c(O)c(NC(=O)c4ccc(O)c(CC=C(C)C)c4)c(=O)oc3c2C)OC1(C)C", "viability, T/C": 59.9}
    ]},
    {"test_system": "843126-344-R-J1-PDC complex spheroid viability", "experiment": "Anticancer human tumor 843126-344-R-J1-PDC cell line growth inhibition [POLQ]", "details": "second compound 10 µM; first compound 0.01 µM; stronger effect = lower value", "in_short": "as §1", "units": {"viability, T/C": "%"}, "values": [
      {"smiles": "COc1cccc(OCCCN)c1-c1cc(Nc2cnc(C#N)cn2)n[nH]1", "note": "+ Nc1ccc(C#CCN(C(=O)Cc2ncc(C(F)(F)F)cc2C(F)(F)F)c2ccc(F)cc2)nn1", "viability, T/C": 66.8},
      {"smiles": "C=CCn1c(=O)c2cnc(Nc3ccc(N4CCN(C)CC4)cc3)nc2n1-c1cccc(C(C)(C)O)n1", "note": "+ COC1C(OC(N)=O)C(O)C(Oc2ccc3c(O)c(NC(=O)c4ccc(O)c(CC=C(C)C)c4)c(=O)oc3c2C)OC1(C)C", "viability, T/C": 97.4}
    ]}
  ]
}
